Experimental data: ChEMBL document CHEMBL4507291 (2021)

Key:
[1] = system: Epidermal growth factor receptor (Homo sapiens), P00533 [L858R,T790M]
[2] = biological target: T1, Serine/threonine-protein kinase BRSK1 (Homo sapiens) (UniProt Q8TDC3)
T1 sequence (whole entry): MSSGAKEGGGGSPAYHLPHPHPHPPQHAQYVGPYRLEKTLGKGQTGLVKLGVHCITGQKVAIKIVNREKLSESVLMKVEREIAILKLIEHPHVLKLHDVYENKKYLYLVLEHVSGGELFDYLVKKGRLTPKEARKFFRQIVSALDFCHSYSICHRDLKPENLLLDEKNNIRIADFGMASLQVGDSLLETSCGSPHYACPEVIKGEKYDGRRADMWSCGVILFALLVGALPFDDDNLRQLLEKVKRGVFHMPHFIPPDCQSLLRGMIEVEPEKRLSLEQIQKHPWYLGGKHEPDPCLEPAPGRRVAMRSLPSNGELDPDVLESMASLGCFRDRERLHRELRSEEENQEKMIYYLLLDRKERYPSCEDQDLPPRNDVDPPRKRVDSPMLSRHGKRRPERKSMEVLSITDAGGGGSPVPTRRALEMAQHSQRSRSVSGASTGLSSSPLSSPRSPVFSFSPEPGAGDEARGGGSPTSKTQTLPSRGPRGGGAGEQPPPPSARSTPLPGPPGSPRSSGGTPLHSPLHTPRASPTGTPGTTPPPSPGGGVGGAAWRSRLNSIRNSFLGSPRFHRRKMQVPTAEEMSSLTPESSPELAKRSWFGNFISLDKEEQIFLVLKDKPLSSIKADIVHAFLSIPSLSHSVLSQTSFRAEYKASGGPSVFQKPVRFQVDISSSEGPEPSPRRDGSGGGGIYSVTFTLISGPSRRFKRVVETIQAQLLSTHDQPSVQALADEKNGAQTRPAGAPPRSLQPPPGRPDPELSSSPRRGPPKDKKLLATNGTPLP

[3] = biological target: Serine/threonine-protein kinase BRSK2 (Homo sapiens) (UniProt Q8IWQ3)
Serine/threonine-protein kinase BRSK2 (Homo sapiens), sequence (Q8IWQ3 whole entry): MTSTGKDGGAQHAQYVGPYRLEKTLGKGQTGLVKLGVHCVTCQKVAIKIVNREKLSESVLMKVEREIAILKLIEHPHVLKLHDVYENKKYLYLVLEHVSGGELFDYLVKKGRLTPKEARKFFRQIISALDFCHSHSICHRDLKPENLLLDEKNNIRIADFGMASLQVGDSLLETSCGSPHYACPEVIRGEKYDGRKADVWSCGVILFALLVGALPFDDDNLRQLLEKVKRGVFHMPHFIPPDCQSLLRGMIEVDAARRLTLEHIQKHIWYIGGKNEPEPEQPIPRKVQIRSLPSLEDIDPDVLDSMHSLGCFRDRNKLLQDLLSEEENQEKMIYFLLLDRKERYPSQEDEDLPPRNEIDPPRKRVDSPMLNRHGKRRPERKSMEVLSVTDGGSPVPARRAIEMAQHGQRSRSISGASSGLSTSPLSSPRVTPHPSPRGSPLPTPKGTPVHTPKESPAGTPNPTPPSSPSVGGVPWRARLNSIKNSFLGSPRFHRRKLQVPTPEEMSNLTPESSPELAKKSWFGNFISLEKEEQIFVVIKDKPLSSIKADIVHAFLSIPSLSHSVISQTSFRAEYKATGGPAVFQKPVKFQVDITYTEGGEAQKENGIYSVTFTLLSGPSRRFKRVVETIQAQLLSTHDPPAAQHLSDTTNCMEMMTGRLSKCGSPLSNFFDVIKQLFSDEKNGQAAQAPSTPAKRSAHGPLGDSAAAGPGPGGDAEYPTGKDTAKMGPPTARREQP

[4] = biological target: Epidermal growth factor receptor (Homo sapiens) (UniProt P00533)
[5] = biological target: Aurora kinase B (Homo sapiens) (UniProt Q96GD4)
Aurora kinase B (Homo sapiens), sequence (Q96GD4 whole entry): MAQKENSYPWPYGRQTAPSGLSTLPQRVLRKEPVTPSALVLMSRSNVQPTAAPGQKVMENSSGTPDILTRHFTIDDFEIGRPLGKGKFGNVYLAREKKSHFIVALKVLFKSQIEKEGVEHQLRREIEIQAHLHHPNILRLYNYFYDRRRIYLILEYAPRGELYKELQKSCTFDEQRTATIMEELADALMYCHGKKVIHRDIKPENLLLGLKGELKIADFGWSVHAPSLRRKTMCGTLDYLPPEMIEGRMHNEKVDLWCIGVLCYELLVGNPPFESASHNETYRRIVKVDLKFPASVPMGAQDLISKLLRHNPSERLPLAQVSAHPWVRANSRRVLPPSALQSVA

[6] = biological target: Ribosomal protein S6 kinase alpha-3 (Homo sapiens) (UniProt P51812)
Ribosomal protein S6 kinase alpha-3 (Homo sapiens), sequence (P51812 whole entry, canonical isoform): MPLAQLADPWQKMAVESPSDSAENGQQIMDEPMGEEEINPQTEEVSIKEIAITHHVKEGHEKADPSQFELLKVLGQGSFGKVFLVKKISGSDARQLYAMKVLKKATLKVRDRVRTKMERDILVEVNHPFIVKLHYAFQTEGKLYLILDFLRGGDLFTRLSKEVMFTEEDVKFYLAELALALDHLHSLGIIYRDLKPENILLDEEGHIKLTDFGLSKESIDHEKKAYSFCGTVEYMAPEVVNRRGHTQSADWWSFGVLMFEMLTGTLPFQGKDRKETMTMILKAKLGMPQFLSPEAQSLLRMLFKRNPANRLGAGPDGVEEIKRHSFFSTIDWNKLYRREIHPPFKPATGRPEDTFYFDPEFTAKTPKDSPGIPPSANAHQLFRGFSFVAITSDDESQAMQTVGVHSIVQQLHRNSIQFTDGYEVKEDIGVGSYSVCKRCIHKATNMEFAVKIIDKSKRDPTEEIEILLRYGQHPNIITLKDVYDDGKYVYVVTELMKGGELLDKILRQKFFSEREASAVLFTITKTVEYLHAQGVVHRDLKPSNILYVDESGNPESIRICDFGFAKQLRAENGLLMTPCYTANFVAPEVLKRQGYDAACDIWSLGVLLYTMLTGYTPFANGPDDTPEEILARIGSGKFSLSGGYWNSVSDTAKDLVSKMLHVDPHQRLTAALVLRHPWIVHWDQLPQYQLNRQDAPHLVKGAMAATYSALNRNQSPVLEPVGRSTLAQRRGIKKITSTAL

[7] = biological target: Casein kinase I isoform epsilon (Homo sapiens) (UniProt P49674)
Casein kinase I isoform epsilon (Homo sapiens), sequence (P49674 whole entry, looked up, canonical isoform): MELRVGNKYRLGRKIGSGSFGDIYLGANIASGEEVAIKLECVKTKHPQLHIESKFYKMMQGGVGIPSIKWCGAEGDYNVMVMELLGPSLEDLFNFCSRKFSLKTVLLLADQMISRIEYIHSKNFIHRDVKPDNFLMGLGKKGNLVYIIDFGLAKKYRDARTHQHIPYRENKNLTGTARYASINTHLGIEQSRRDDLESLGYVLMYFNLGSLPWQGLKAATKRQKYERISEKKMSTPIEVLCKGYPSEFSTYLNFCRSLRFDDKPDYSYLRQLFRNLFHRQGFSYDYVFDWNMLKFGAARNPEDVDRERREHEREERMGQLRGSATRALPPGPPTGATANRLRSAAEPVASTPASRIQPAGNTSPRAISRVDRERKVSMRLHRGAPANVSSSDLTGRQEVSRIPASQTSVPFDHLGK

[8] = biological target: 1-phosphatidylinositol 3-phosphate 5-kinase (Homo sapiens) (UniProt Q9Y2I7)
[9] = biological target: T2, Serine/threonine-protein kinase D3 (Homo sapiens) (UniProt O94806)
T2 sequence (whole entry): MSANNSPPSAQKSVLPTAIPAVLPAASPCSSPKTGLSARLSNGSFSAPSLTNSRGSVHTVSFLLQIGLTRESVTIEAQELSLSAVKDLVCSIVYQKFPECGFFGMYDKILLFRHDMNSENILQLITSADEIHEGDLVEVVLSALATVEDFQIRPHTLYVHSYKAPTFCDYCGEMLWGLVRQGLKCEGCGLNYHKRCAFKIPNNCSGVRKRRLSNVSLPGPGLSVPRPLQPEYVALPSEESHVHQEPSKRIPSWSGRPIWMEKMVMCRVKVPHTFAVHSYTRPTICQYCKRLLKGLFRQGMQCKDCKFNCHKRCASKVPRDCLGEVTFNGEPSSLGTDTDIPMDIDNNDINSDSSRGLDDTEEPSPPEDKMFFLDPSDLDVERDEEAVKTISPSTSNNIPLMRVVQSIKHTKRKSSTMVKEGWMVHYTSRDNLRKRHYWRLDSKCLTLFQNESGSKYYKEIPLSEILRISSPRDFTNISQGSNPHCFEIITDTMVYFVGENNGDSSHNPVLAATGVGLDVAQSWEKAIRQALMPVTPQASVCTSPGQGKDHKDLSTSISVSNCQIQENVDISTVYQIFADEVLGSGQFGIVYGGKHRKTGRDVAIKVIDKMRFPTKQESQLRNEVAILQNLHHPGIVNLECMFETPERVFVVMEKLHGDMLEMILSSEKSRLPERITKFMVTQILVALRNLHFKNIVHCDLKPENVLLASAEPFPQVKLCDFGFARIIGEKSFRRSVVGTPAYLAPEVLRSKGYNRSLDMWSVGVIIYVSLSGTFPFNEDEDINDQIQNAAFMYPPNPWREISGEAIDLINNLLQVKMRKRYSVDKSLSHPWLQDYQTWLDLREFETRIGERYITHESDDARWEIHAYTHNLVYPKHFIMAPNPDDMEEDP

[10] = biological target: Leukocyte tyrosine kinase receptor (Homo sapiens) (UniProt P29376)
Leukocyte tyrosine kinase receptor (Homo sapiens), sequence (P29376 whole entry): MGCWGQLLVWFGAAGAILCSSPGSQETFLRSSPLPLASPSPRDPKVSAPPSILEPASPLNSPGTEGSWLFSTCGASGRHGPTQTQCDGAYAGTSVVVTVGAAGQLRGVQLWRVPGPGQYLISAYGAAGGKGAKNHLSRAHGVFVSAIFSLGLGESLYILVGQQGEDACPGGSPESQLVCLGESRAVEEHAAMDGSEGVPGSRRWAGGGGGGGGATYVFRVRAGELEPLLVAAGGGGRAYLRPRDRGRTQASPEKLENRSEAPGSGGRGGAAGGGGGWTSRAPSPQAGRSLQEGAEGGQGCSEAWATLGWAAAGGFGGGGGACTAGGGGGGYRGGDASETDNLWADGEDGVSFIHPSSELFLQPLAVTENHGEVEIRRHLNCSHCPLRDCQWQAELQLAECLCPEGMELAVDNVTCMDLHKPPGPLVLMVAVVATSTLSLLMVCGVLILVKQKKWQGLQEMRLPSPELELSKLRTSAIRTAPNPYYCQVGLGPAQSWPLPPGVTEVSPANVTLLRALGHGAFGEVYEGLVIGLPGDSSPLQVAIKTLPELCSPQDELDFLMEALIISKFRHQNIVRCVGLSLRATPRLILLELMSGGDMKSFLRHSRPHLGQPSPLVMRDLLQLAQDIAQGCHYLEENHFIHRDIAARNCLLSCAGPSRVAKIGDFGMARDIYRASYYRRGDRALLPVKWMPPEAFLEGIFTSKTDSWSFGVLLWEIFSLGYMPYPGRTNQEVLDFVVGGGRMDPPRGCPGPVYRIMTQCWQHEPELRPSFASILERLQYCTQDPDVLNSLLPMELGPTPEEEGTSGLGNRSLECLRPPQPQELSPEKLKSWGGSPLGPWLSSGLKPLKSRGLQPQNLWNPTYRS

[11] = biological target: T3, cGMP-dependent protein kinase 2 (Homo sapiens) (UniProt Q13237)
T3 sequence (whole entry): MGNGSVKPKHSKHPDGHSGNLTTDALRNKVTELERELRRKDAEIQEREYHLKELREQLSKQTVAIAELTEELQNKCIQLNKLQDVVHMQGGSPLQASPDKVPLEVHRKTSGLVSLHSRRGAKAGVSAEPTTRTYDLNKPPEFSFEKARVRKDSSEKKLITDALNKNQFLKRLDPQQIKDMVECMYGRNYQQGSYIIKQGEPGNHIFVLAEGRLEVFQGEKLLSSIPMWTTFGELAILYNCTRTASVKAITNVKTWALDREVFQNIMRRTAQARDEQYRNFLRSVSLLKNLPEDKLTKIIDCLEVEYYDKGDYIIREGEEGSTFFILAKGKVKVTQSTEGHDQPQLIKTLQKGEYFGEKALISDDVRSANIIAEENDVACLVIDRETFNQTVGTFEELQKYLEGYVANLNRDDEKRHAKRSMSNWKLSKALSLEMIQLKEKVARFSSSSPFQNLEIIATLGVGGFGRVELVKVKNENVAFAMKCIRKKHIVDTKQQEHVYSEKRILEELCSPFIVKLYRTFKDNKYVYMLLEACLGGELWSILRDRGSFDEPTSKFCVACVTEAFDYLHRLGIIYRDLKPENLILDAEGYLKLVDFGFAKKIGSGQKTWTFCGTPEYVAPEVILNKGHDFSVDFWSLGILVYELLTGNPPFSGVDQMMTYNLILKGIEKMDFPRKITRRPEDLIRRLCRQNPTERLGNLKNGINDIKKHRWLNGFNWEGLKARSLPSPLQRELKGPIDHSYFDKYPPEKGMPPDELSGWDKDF

[12] = biological target: Serine/threonine-protein kinase MARK1 (Homo sapiens) (UniProt Q9P0L2)
Serine/threonine-protein kinase MARK1 (Homo sapiens), sequence (Q9P0L2 whole entry, looked up): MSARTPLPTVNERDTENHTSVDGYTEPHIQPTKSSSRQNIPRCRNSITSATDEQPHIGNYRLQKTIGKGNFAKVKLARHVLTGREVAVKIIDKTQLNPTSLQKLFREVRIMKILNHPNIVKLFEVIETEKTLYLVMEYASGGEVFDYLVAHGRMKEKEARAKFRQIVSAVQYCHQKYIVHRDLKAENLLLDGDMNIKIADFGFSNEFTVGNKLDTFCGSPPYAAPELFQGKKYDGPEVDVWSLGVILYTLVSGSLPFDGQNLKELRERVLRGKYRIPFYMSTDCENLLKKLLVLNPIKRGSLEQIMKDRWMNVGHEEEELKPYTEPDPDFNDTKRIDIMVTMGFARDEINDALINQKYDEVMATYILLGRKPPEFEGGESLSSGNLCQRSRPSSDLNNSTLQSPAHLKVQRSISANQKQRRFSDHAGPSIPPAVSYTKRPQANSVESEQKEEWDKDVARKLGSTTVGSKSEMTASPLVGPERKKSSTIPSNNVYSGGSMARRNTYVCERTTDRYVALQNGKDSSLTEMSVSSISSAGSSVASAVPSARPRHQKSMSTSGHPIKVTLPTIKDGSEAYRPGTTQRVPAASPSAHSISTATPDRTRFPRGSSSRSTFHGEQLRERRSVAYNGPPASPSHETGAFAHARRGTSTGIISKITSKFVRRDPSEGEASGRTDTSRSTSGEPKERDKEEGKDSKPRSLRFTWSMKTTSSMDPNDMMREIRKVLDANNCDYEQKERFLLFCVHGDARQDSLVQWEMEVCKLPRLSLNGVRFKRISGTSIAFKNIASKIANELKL

[13] = Compound concentration 100.0 nM
[14] = Compound concentration 1000.0 nM

Measured: residual activity

C[C@@H]1CN(c2cc(-c3n[nH]c4ccc(OC5(C)CC5)cc34)ncn2)C[C@H](C)O1 [MLi-2]
inactive: [1]; [13] 84% | [2]; [13] 96% | [3]; [13] 100% | [4]; [13] 76% | [5]; [13] 73% | [6]; [13] 85% | [7]; [13] 100% | [8]; [13] 90% | [9]; [13] 82% | [10]; [13] 84% | [11]; [13] 79% | [12]; [13] 100%

C[C@@H]1CN(c2cc(-c3nn(C)c4ccc(OC5(C)CC5)cc34)ncn2)C[C@H](C)O1 [MLi-2-NC]
inactive: [1]; [14] 99% | [2]; [14] 97% | [3]; [14] 100% | [4]; [14] 97% | [5]; [14] 94% | [6]; [14] 91% | [7]; [14] 100% | [8]; [14] 78% | [9]; [14] 64% | [10]; [14] 100% | [11]; [14] 85% | [12]; [14] 100%
